Each structure is given as a SMILES string. Converted amounts (≈) assume the structure as drawn. Like-named read-outs stand apart in the source and are kept apart here. Positions of bridges follow the written chain, without caps; N, C: chain ends. Non-standard residues stand in square brackets, D forms with d. Residues, ends and D or L forms follow the SMILES beside them. *: point of attachment. Decanoyl(3R-OH) = CCCCCCC[C@@H](O)CC(=O)*; dDab = NCC[C@@H](N)C(=O)O; Dab = NCC[C@H](N)C(=O)O

Three compounds from US11279733B2, “Peptide antibiotics” (priority 2017, dated 2022) can be followed below.

One series deals with E. coli ATCC 25922. The following applies: ATCC 25922. The gist of the method:
(§1)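 Mid-log cultures grown in Mueller Hinton broth at 37° C were tested by 2-fold broth microdilution at 5×10^5 CFU/mL final. Compounds were dissolved in water and tested over a final range of 32 to 0.015 μg/mL.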

The subject of a further series is A. baumannii GN_093 PmxR. The following applies: GN 093 PmxR. The gist of the method:
as §1

A further series has as its system K. pneumoniae ATCC 13883. The note with it: ATCC 13883. Put shortly: as §1
The subject of series [1] is K. pneumoniae GN_102 PmxR. The note with it: GN 102 PmxR. Put shortly: as §1
The subject of series [2] is K. pneumoniae ATCC 700603, MDR. The following applies: ATCC 700603. The gist of the method: as §1
A further series concerns A. baumannii ATCC 19606. The note with it: ATCC 19606. Put shortly: as §1
The subject of the next series is P. aeruginosa ATCC 27853. The following applies: ATCC 27853. The gist of the method: as §1
Series [3] has as its system K. pneumoniae GN_106, PmxR. The note with it: GN 106, PmxR. Put shortly:
as §1

The test system of series [4] is K. pneumoniae ATCC BAA-2146, NDM-1 pos. The note with it: ATCC BAA-2146. Put shortly: as §1
For series [5], the system named is S. aureus ATCC 25923, MSSA. The note with it: ATCC 25923. The gist of the method: as §1
Series [6] deals with P. aeruginosa GN_043, PmxR. The gist of the method:
as §1

For series [7], the system named is P. aeruginosa GN_105, PmxR. The following applies: GN 105, PmxR. The gist of the method: as §1
A short description of a further series: in vitro. The following applies: human. The protocol: Cytotoxicity of the synthesised peptides was evaluated by comparison with commercially available colistin (polymyxin E), polymyxin B (Sigma chemical Co., St. Louis, Mo., U.S.A.) and synthetic octapeptin C4 by conducting lactate dehydrogenase (LDH) assay. CC50 values calculated based on curve fitting of dose dependent inhibition of cell growth represented the cytotoxicity of the peptide. Human kidney 2 (HK2) cells were seeded as 2000 cells per well in a 384 well cell culture plate in a final volume of 20 μL in DMEM/F12 medium (Invitrogen #11330057), in which 10% of FBS was added. Cells were incubated for 24 hours at 37° C., 5% CO2 to allow cells to attach to the plates. Similar conditions were employed for HEK293 and HepG2 cytotoxicity assays.
Colistin and polymyxin B were tested from a range of 2 mM to 0.9 μM. 120 μL of the 1 mM stock solutions in water of each synthesised peptide were freeze-dried and processed for LDH assay. After freeze-dry procedure, the compounds were reconstituted into 600 μM solutions using culture media. All tested compounds were diluted from 600 μM to 0.27 μM in 3-fold dilutions. Then 20 μL of each dilution was added into 20 uL of culture medium in quadruplicate to reach the final concentrations. The cells were incubated with the compounds for 24 h at 37° C., 5% CO2. After the incubation, 5 μL of culture medium was added to 50 μL of LDH assay buffer and incubated for 1 h at room temperature. The absorbance was read at 450 nm using Polarstar. The data was then analysed by Prism software. […] Nephrotoxicity Assessment in Human Proximal Tubule Cells.

As for `CCCCCCC[C@@H](O)CC(=O)N[C@@H](C)C(=O)N[C@H]1CCNC(=O)[C@H](CC(C)C)NC(=O)[C@H](CCN)NC(=O)[C@H](CCN)NC(=O)[C@H](CC(C)C)NC(=O)[C@@H](Cc2ccccc2)NC(=O)[C@H](CCN)NC1=O` [compound 4950, 3(R)OH-nC9CO-L-Ala-cyc[L-Dab-L-Dab-D-Phe-L-Leu-L-Dab-L-Dab-L-Leu]] ({Decanoyl(3R-OH)}-A[Dab][Dab][dF]L[Dab][Dab]L; lactam 2-C), the “MIC, E. coli ATCC 25922” value against E. coli ATCC 25922 is 32 µg/mL (≈ 31.5 µM). Moreover, the “MIC A. baumannii GN_093 PmxR” value in the series with A. baumannii GN_093 PmxR is over 32 µg/mL. Moreover, the “MIC, K. pneumoniae ATCC 13883” value in the series with K. pneumoniae ATCC 13883 was 16 µg/mL (≈ 15.8 µM). The “MIC K. pneumoniae GN_102 PmxR” value in [1] is 8 µg/mL (≈ 7.88 µM). The “MIC, K. pneumoniae ATCC 700603, MDR” value in [2] was 16 µg/mL (≈ 15.8 µM). For the same compound, the “MIC, A. baumannii ATCC 19606” value in the series with A. baumannii ATCC 19606 is over 32 µg/mL. In addition, in the series on P. aeruginosa ATCC 27853, the “MIC, P. aeruginosa ATCC 27853” value came out at 16 µg/mL (≈ 15.8 µM). Moreover, the “MIC K. pneumoniae GN_106, PmxR” value in series [3] was 32 µg/mL (≈ 31.5 µM). Besides, in series [4], the “MIC, K. pneumoniae ATCC BAA-2146, NDM-1 pos” value stood at 16 µg/mL (≈ 15.8 µM). Moreover, the “MIC, S. aureus ATCC 25923, MSSA” value in [5] is over 32 µg/mL. In addition, the “MIC P. aeruginosa GN_043, PmxR” value in series [6] (Table 6, polymyxin-resistant) is 16 µg/mL (≈ 15.8 µM). In series [7], the “MIC P. aeruginosa GN_105, PmxR” value was 32 µg/mL (≈ 31.5 µM). Besides, the CC50 at 24 h in the series “in vitro” was found to be 286 µM.
Regarding `CCCCCCC[C@@H](O)CC(=O)N[C@H](C)C(=O)N[C@H]1CCNC(=O)[C@H](CC(C)C)NC(=O)[C@H](CCN)NC(=O)[C@H](CCN)NC(=O)[C@H](CC(C)C)NC(=O)[C@@H](Cc2ccccc2)NC(=O)[C@H](CCN)NC1=O` [compound 4951, 3(R)OH-nC9CO-D-Ala-cyc[L-Dab-L-Dab-D-Phe-L-Leu-L-Dab-L-Dab-L-Leu]] ({Decanoyl(3R-OH)}-[dA][Dab][Dab][dF]L[Dab][Dab]L; lactam 2-C), the “MIC, E. coli ATCC 25922” value against E. coli ATCC 25922 turned out to be 16 µg/mL (≈ 15.8 µM). Also, the “MIC A. baumannii GN_093 PmxR” value with A. baumannii GN_093 PmxR is 32 µg/mL (≈ 31.5 µM). Besides, the “MIC, K. pneumoniae ATCC 13883” value in the series on K. pneumoniae ATCC 13883 worked out at 16 µg/mL (≈ 15.8 µM). For the same compound, the “MIC K. pneumoniae GN_102 PmxR” value in [1] was 4 µg/mL (≈ 3.94 µM). In addition, in [2], the “MIC, K. pneumoniae ATCC 700603, MDR” value came out at 8 µg/mL (≈ 7.88 µM). Also, in the series on A. baumannii ATCC 19606, the “MIC, A. baumannii ATCC 19606” value came to 32 µg/mL (≈ 31.5 µM). In the series on P. aeruginosa ATCC 27853, the “MIC, P. aeruginosa ATCC 27853” value turned out to be 8 µg/mL (≈ 7.88 µM). Also, in series [3], the “MIC K. pneumoniae GN_106, PmxR” value amounted to 8 µg/mL (≈ 7.88 µM). For the same compound, in series [4], the “MIC, K. pneumoniae ATCC BAA-2146, NDM-1 pos” value turned out to be 8 µg/mL (≈ 7.88 µM). The “MIC, S. aureus ATCC 25923, MSSA” value in [5] was 32 µg/mL (≈ 31.5 µM). Also, the “MIC P. aeruginosa GN_043, PmxR” value in series [6] (Table 6, polymyxin-resistant) came out at 8 µg/mL (≈ 7.88 µM). Besides, in series [7], the “MIC P. aeruginosa GN_105, PmxR” value was determined as 16 µg/mL (≈ 15.8 µM). In the series “in vitro”, this compound yielded a CC50 at 24 h of 120 µM.
With `CCCCCCC[C@@H](O)CC(=O)N[C@H](CCN)C(=O)N[C@H]1CCNC(=O)[C@H](CC(C)C)NC(=O)[C@H](CCN)NC(=O)[C@H](CCN)NC(=O)[C@H](CC(C)C)NC(=O)[C@@H](C)NC(=O)[C@H](CCN)NC1=O` [compound 5006, 3(R)OH-nC9CO-D-Dab-cyc[L-Dab-L-Dab-D-Ala-L-Leu-L-Dab-L-Dab-L-Leu]] ({Decanoyl(3R-OH)}-[dDab][Dab][Dab][dA]L[Dab][Dab]L; lactam 2-C), the “MIC E. coli ATCC 25922” value in the series with E. coli ATCC 25922 turned out to be 16 µg/mL (≈ 16.5 µM). In addition, the “MIC A. baumannii GN_093 PmxR” value in the series with A. baumannii GN_093 PmxR was over 32 µg/mL. For the same compound, in the series on K. pneumoniae ATCC 13883, the “MIC K. pneumoniae ATCC 13883” value was determined as 32 µg/mL (≈ 33 µM). Moreover, the “MIC K. pneumoniae GN_102 PmxR” value in [1] was 8 µg/mL (≈ 8.26 µM). Besides, the “MIC K. pneumoniae ATCC 700603, MDR” value in [2] was over 32 µg/mL. Further, the “MIC A. baumannii ATCC 19606” value against A. baumannii ATCC 19606 is over 32 µg/mL. Besides, the “MIC P. aeruginosa ATCC 27853” value in the series on P. aeruginosa ATCC 27853 was found to be 16 µg/mL (≈ 16.5 µM). Further, the “MIC K. pneumoniae GN_106, PmxR” value in series [3] turned out to be 32 µg/mL (≈ 33 µM). For the same compound, the “MIC K. pneumoniae ATCC BAA-2146, NDM-1 pos” value in series [4] turned out to be 32 µg/mL (≈ 33 µM). In series [5], the “MIC S. aureus ATCC 25923, MSSA” value is over 32 µg/mL. Also, in series [6] (P. aeruginosa GN_043, PmxR), the “MIC P. aeruginosa GN_043, PmxR” value stood at 8 µg/mL (≈ 8.26 µM). Further, in series [7], the “MIC P. aeruginosa GN_105, PmxR” value is 32 µg/mL (≈ 33 µM). For the same compound, the CC50 at 24 h in the series “in vitro” is 277 µM.
